Measured values as given in patent US10130590B2, “Methods of treating cancer with atovaquone-related compounds” (DANA-FARBER CANCER INSTITUTE, INC., priority 2013, dated 2018).

Legend:
[1] = test system: malignant hematological cell lines that lack STAT3 activation; assay: Cell viability of hematologic cancer cells lacking STAT3 activation; format: cell-based; conditions: 72 hours
Method: Western blotting was performed as previously described (Battle T E, Arbiser J, & Frank D A (2005) The natural product honokiol induces caspase dependent apoptosis in B-cell chronic lymphocytic leukemia (B-CLL) cells. Blood 106(2):690-697). Antibodies to phospho-MAPK (9101), total MAPK (9102), phospho-Y705 STAT3 (9131), phospho-S6 (2215), total S6 (2217), phospho-4E-BP1 (9451), total 4E-BP1 (9644), total RSK (9355), phospho-S6K (9234, 85 used at 1:5000), total S6K (2708), phospho-eIF2α (9721, used at 1:1000), total eIF2α (5324), ATF4 (11815, used at 1:1000), PDGFRβ (3169), IGF1Rβ (9750), EGFR (2232), and HER2 (2242) were from Cell Signaling Technology. Phospho-RSK antibody was from R&D (AF889). Antibodies to total STAT3 (sc-482) and gp130 (sc-656, used at 1:1000) were from Santa Cruz Biotechnology. Phospho-S727 STAT3 antibody was described previously (229). REDD1 antibody was from Proteintech (10638-1-AP, used at 1:1000). Antibody recognizing full-length and cleaved ATF6 was from Abcam (ab122897, used at 1:1000). Antibodies to tubulin (T5168) and beta actin (A5316) were from Sigma. All antibodies were used at 1:10000 dilution for western blot unless otherwise noted. […] Cell viability was measured as ATP-dependent luminescence by Cell Titer Glo (Promega). […]

[2] = test system: U266 human multiple myeloma cells; assay: U266 multiple myeloma xenograft in NSG mice; format: in vivo; conditions: 200 mg/kg daily by oral gavage
Method: Female NSG mice (obtained from The Jackson Laboratory, Bar Harbor, Me.) were injected subcutaneously with 5×10^6 U266 cells in 30% Matrigel, and tumors were allowed to grow to a volume of approximately 100 mm^3. At that point, animals were treated daily by oral gavage with either vehicle (5% benzyl alcohol in water), generic atovaquone, or Mepron® brand atovaquone (GlaxoSmithKline LLC, Philadelphia, Pa.) at a dose of 200 mg/kg.

K562 and AML2 cells = assay: Annexin V/PI and cell cycle analysis, K562 and AML2; format: cell-based; conditions: K562 20 μM, AML2 15 μM, 48 hours
Method: Annexin V/PI staining was performed using Annexin V:FITC Apoptosis Detection Kit I (BD Biosciences). Staining for cell cycle analysis was performed as previously described (267). Staining for cell-surface receptors was performed in 50 μl PBS+2% FBS with 2 μl antibody to IL6R (BioLegend #352803) or 5 μl antibody to gp130 (BD Biosciences #555757) for 20 minutes on ice in the dark. Cells were washed twice, then resuspended in 300 μl of the same buffer. Samples were analyzed on a BD FACSCanto II machine. Transfection and siRNA Cells were reverse-transfected using Lipofectamine RNAiMAX (Invitrogen); the culture medium was changed 24 hours later. Control siRNA (D-001210-02) and REDD1 siRNA (M-010855-01) were from Thermo Scientific Dharmacon.
K562 and AML2 cells treated with atovaquone (20 and 15 μM, respectively) for 48 hours. […] Therefore, it was hypothesized that atovaquone kills cancer cells through STAT3-related and STAT3-independent mechanisms. Accordingly, the hypothesis that atovaquone inhibited another common pathway in cancer pathogenesis was considered. In particular, the mTOR pathway, which is known to be involved in cancer cell growth and survival, was investigated.

STAT5 = STAT5 cell-based luciferase reporter system
Method: To determine if atovaquone inhibits STAT3, it was tested in a cell-based reporter system of STAT3 transcriptional activity (Nelson E A, et al. (2008) Nifuroxazide inhibits survival of multiple myeloma cells by directly inhibiting STAT3. Blood 112(13):5095-5102). These cells lack basal STAT3 activation; upon IL-6 treatment, STAT3 becomes activated and drives transcription of a STAT3-dependent luciferase reporter gene. The STAT3-luc reporter cells were pre-treated with drug for 1 hour, then stimulated with IL-6 (10 ng/ml) for 5 hr. Activity of firefly luciferase was measured and normalized by cell viability (Cell Titer Glo). […] To determine if atovaquone inhibits STAT3 activity specifically over other transcription factors, it was tested in cell-based reporter systems for STAT1 and STAT5, two other STAT family members, and NF-κB, an unrelated transcription factor.

O=C1C(O)=C([C@H]2CC[C@H](c3ccc(Cl)cc3)CC2)C(=O)c2ccccc21 [atovaquone, trans-2-[4-(4-chlorophenyl)cyclohexyl]-3-hydroxy-1,4-naphthalenedione]
viability of malignant hematological cell lines that lack STAT3 activation [1]: reduced the viability | median survival of the treated animals [2]: increase in the median survival | tumor growth rate ([2]; from tumor volume approximately 100 mm^3): prominent decrease in the growth rate | mode of loss of viability (K562 and AML2 cells): apoptosis and cell cycle arrest | STAT5 transcription factor activity (STAT5): modestly affected at the higher doses
